Assay results published in patent US10278942B2 (PELOTON THERAPEUTICS, INC., priority 2015, dated 2019).
Where two headings read alike, the source gives them in different places.

Tests used:
[1] = target: T1, HIF-2α HIS TAG-PASB Domain (Homo sapiens, UniProt Q99814); test: HIF-2α Scintillation Proximity Assay (SPA); format: binding
T1 construct: 100 nM HIF-2α HIS TAG-PASB Domain
How it was run: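 IC50 values rest on percent inhibition, where the sample signal is scaled between high and low controls. Wells contain about 100 μL: compound dispensed as 2 μL of DMSO solution, 88 μL protein-probe mix and 10 μL of beads.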

786-O cells = test: VEGF ELISA Assay; format: cell-based; conditions: Homo sapiens, 786-0
Procedure: Each concentration was plated in duplicate. About 20 hours later, medium was removed by suction and each well was supplied with 180 μL of growth medium. About 20 μl freshly-made 10× compound stocks were added to each well. […] The EC50 was calculated by GraphPad Prism using the dose-response-inhibition (four parameter) equation. The cell-seeded plate was then subjected to CellTiter-Glo luminescence cell viability assay (Promega) by adding 50 μL of Celltiter Glo reagent into each well and shaking the plate for 8 minutes at 550 rpm (Thermomixer R, Eppendorf) then the luminescence signal immediately read in a plate reader (3 second delay, 0.5 second/well integration time, Synergy 2 multi Detection Microplate reader).

786-O-Hif-Luc cells = test: Luciferase Assay (HIF responsive elements reporter)
Procedure: A pool of infected cells were then selected against 2 μg/mL of puromycin (P8833, Sigma) for 10 days followed by limited dilution to select single clones. […] Each concentration was tested in triplicate. After about 24 hours, luciferase activity was determined using ONE-Glo Luciferase Assay Reagent (E6110, Promega) following the manufacturer's recommended procedure. EC50 were calculated using Dotmatics software.

[2] = read-out: Scintillation Proximity Assay IC50
[3] = read-out: Mean Luciferase EC50 (nM), 786-O-Hif-Luc cells
[4] = Scintillation Proximity Assay IC50 (nM)

T1 sequence (Q99814 240-350 limits assumed): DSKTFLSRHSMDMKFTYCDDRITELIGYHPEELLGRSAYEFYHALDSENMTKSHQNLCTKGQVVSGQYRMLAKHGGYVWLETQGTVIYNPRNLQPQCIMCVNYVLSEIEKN

| SMILES | IC50 [1, 2] | EC50 (786-O cells) | EC50 (786-O-Hif-Luc cells; [3]) | IC50 [1, 4] | EC50 (786-O-Hif-Luc cells; read-out: Mean Luciferase EC50 (nM)) |
| --- | --- | --- | --- | --- | --- |
| COC[C@@H](C)Oc1ccc(S(=O)(=O)C(F)(F)F)c2c1CC(F)(F)[C@H]2O [Compound 659] | < 50 nM | 50 to 249 nM | 50 to 249 nM |  |  |
| O=S(=O)(c1ccc(Oc2cc(F)cc(F)c2)c2c1C(O)C(F)(F)C2)C(F)F (stereo not drawn) [Compound 9] | < 50 nM | < 50 nM | < 50 nM |  |  |
| N#Cc1cc(F)cc(Oc2ccc3c(c2Cl)[C@@H](O)C(F)(F)S3(=O)=O)c1 [Compound 431] | < 50 nM | 50 to 249 nM | < 50 nM |  |  |
| Cc1c(S(=O)(=O)C(F)F)ccc(Oc2cc(F)cc(F)c2)c1C#N [Compound 34] | < 50 nM | 250 to 1000 nM | 250 to 1000 nM |  |  |
| CS(=O)(=O)c1ccc(Oc2cc(F)cc(Br)c2)c2c1[C@H](O)C(F)(F)C2 [Compound 304] | < 50 nM | 50 to 249 nM | < 50 nM |  |  |
| CS(=O)(=NC#N)c1ccc(Oc2cc(F)cc(F)c2)c2c1C(O)C(F)(F)C2 (stereo not drawn) [Compound 191] | < 50 nM | 50 to 249 nM | 50 to 249 nM |  |  |
| N#Cc1cncc(Oc2ccc(S(=O)(=O)C(F)(F)F)c3c2C[C@@H](F)[C@H]3O)c1 [Compound 225] | < 50 nM | 50 to 249 nM | < 50 nM |  |  |
| O=S(=O)(c1ccc(OCCF)c2c1[C@H](O)C(F)(F)C2)C(F)(F)F [Compound 706] | 50 to 249 nM | 50 to 249 nM | 50 to 249 nM |  |  |
| N#Cc1cc(Oc2ccc(S(=O)(=O)C(F)(F)F)c3c2CC(F)(F)[C@H]3O)ccc1F [Compound 228] | < 50 nM | < 50 nM | < 50 nM |  |  |
| O=S(=O)(c1ccc(OC2CCOCC2)c2c1[C@H](O)C(F)(F)C2)C(F)F [Compound 783] | < 50 nM | 50 to 249 nM | < 50 nM |  |  |
| O=[N+]([O-])c1c(Oc2cc(F)cc(Cl)c2)ccc(C(F)(F)F)c1Cl [Compound 203] | 50 to 249 nM | 250 to 1000 nM | 250 to 1000 nM |  |  |
| O=S(=O)(c1ccc(OC2CC(F)(F)C2)c2c1[C@H](O)C(F)(F)C2)C(F)(F)F [Compound 572] | < 50 nM | < 50 nM | < 50 nM |  |  |
| O=S(=O)(c1ccc(Oc2cncc(Cl)c2)c2c1[C@H](O)C(F)(F)C2)C(F)(F)F [Compound 186] | < 50 nM | < 50 nM | < 50 nM |  |  |
| N=S1(=O)c2ccc(Oc3cc(F)cc(F)c3)c(C(F)F)c2C(O)C1(F)F (stereo not drawn) [Compound 398] | < 50 nM | 50 to 249 nM | 50 to 249 nM |  |  |
| CS(=O)(=O)c1ccc(OC2CC(F)(F)C2)c2c1[C@H](O)C(F)(F)[C@@H]2F [Compound 574, (1S,3R)-4-(3,3-difluorocyclobutoxy)-2,2,3-trifluoro-7-(methylsulfonyl)-2,3-dihydro-1H-inden-1-ol] | < 50 nM | 50 to 249 nM | 50 to 249 nM |  |  |
| O=S1(=O)c2ccc(Oc3cc(F)cc(Cl)c3)c(C(F)(F)F)c2C(O)C1(F)F (stereo not drawn) [Compound 360] |  | 50 to 249 nM |  | < 50 nM | 50 to 249 nM |
| NC1c2c(ccc(Oc3cc(F)cc(F)c3)c2C(F)F)S(=O)(=O)C1(F)F (stereo not drawn) [Compound 365] | < 50 nM | 50 to 249 nM | 50 to 249 nM |  |  |
| N#CC1(COc2ccc(S(=O)(=O)C(F)(F)F)c3c2CC(F)(F)[C@H]3O)CC1 [Compound 658] | < 50 nM | < 50 nM | < 50 nM |  |  |
| O=S(=O)(c1ccc(Oc2ccc(F)cc2)c2c1[C@H](O)C(F)(F)C2)C(F)(F)F [Compound 230] | < 50 nM | < 50 nM | < 50 nM |  |  |
| O=S(=O)(c1ccc(Oc2cc(F)cc(F)c2)c2c1[C@H](O)CC2)C(F)F [Compound 2] | < 50 nM | 50 to 249 nM | 50 to 249 nM |  |  |
| O=S(=O)(CF)c1ccc(O[C@H]2C[C@H](F)C2)c2c1[C@H](O)C(F)(F)[C@@H]2F [Compound 742] | < 50 nM | < 50 nM | < 50 nM |  |  |

| SMILES | IC50 [1, 2] | EC50 (786-O cells) | EC50 (786-O-Hif-Luc cells; [3]) | IC50 [1, 4] | EC50 (786-O-Hif-Luc cells; read-out: Mean Luciferase EC50 (nM)) |
| --- | --- | --- | --- | --- | --- |
| O=S(=O)(c1ccc(OC2CCCC2)c2c1C(O)C(F)(F)C2)C(F)(F)F (stereo not drawn) [Compound 605] | < 50 nM | 50 to 249 nM | < 50 nM |  |  |
| O=S(=O)(c1ccc(Oc2cc(F)cc(F)c2)c2c1[C@H](O)CC2)C(F)(F)F [Compound 55] | < 50 nM | < 50 nM | < 50 nM |  |  |
| CS(=O)(=O)c1ccc(OC2CC(F)(F)C2)c2c1[C@H](O)C(F)(F)C2 [Compound 734] | 50 to 249 nM | 250 to 1000 nM | 50 to 249 nM |  |  |
| N#Cc1cc(F)cc(Oc2ccc(S(=O)(=O)C(F)(F)F)c3c2CC(F)(F)[C@H]3O)c1 [Compound 185] |  | < 50 nM | < 50 nM | < 50 nM |  |
| CS(=O)(=O)c1ccc(Oc2cncc(C#N)c2)c2c1[C@H](O)C(F)(F)[C@@H]2F [Compound 342] | < 50 nM | 50 to 249 nM | 50 to 249 nM |  |  |
| O=S(=O)(c1ccc(CCO)c2c1C(O)CC2)C(F)(F)F (stereo not drawn) [Compound 495, 4-(2-hydroxyethyl)-7-((trifluoromethyl)sulfonyl)-2,3-dihydro-1H-inden-1-ol] | > 1000 nM | 250 to 1000 nM | > 1000 nM |  |  |
| N#Cc1cc(F)cc(Oc2ccc(C(F)(F)F)c3c2CC(F)(F)[C@H]3O)c1 [Compound 273] | < 50 nM | < 50 nM | < 50 nM |  |  |
| CS(=O)(=O)c1ccc(O[C@H]2C[C@H](C#N)C2)c2c1[C@H](O)C(F)(F)[C@@H]2F [Compound 760] | < 50 nM | 50 to 249 nM | 50 to 249 nM |  |  |
| O=S(=O)(CF)c1ccc(Oc2cc(F)cc(F)c2)c2c1[C@H](O)CC2 [Compound 60] | < 50 nM | < 50 nM | 50 to 249 nM |  |  |
| O=S(=O)(c1ccc(OC2CCOCC2)c2c1[C@H](O)C(F)(F)C2)C(F)(F)F [Compound 744] | < 50 nM | < 50 nM | < 50 nM |  |  |
| CS(=O)(=O)c1ccc(Oc2cncc(C#N)c2)c2c1[C@H](O)C(F)(F)C2 [Compound 325] | 50 to 249 nM | 50 to 249 nM | 250 to 1000 nM |  |  |
| Cc1cc(C#N)cc(Oc2ccc(S(=O)(=O)CF)c3c2CC(F)(F)[C@H]3O)c1 [Compound 166] | < 50 nM | 50 to 249 nM | < 50 nM |  |  |
| CS(=O)(=O)c1ccc(OC2CC(F)(F)C2)c2c1[C@H](O)[C@H](F)[C@@H]2F [Compound 577] | < 50 nM | 250 to 1000 nM | 250 to 1000 nM |  |  |
| O=S(=O)(CF)c1ccc(Oc2cc(F)c(F)c(F)c2)c2c1[C@H](O)C(F)(F)C2 [Compound 188] | < 50 nM | 50 to 249 nM | 50 to 249 nM |  |  |
| CS(=O)(=O)c1ccc(O[C@H]2C[C@H](F)C2)c2c1[C@H](O)C(F)(F)[C@@H]2F [Compound 736] | < 50 nM | 50 to 249 nM | 50 to 249 nM |  |  |
| O=S(=O)(c1ccc(OCC(F)F)c2c1[C@H](O)C(F)(F)C2)C(F)(F)F [Compound 571] | < 50 nM | < 50 nM | < 50 nM |  |  |
| CS(=O)(=NC#N)c1ccc(Oc2cc(F)cc(C#N)c2)c2c1[C@H](O)C(F)(F)[C@@H]2F (stereo partly drawn) [Compound 316] | < 50 nM | < 50 nM | < 50 nM |  |  |
| O=S(=O)(c1ccc(OCCCF)c2c1[C@H](O)C(F)(F)C2)C(F)(F)F [Compound 712] | < 50 nM | < 50 nM | < 50 nM |  |  |
| CC1(O)c2c(ccc(Oc3cc(F)cc(F)c3)c2C#N)S(=O)(=O)C1(F)F (stereo not drawn) [Compound 446] | < 50 nM | < 50 nM | < 50 nM |  |  |
| O=S(=O)(CF)c1ccc(OC2CC(F)(F)C2)c2c1[C@H](O)C(F)(F)[C@@H]2F [Compound 576, (1S,3R)-4-(3,3-difluorocyclobutoxy)-2,2,3-trifluoro-7-((fluoromethyl)sulfonyl)-2,3-dihydro-1H-inden-1-ol] | < 50 nM | 50 to 249 nM | < 50 nM |  |  |
